Results published in ChEMBL document CHEMBL1136613, “2-(3,4-Dihydro-1H-isoquinolin-2yl)-pyridines as a novel class of NR1/2B subtype selective NMDA receptor antagonists” (Bioorg Med Chem Lett, 2003).
Where “and” joins values, the source holds several entries; their conditions need not be identical. Identical values can stand only once.

What was measured:
[1] = molecular target: T1, Muscarinic acetylcholine receptor M1 (Homo sapiens, UniProt P11229)
T1 sequence (P11229 whole entry): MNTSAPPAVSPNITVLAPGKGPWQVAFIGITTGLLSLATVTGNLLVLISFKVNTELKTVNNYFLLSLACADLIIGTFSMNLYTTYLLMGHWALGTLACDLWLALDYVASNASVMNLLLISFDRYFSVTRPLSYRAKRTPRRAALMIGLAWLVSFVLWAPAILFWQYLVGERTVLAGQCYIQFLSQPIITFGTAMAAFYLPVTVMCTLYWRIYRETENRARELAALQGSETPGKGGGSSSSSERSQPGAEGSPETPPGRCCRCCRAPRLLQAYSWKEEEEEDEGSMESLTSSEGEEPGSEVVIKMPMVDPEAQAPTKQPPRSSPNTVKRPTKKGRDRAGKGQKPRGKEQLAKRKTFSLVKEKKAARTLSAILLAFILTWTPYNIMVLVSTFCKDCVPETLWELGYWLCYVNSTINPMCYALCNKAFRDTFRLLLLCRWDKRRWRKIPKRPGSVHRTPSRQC
Description: Displacement of [3H]pirenzepine from M1 receptor

[2] = molecular target: Glutamate [NMDA] receptor
Description: Binding affinity against NMDA receptor by displacement of [3H]Ro-256981

[3] = molecular target: T2, Adrenergic receptor alpha-1 (Homo sapiens, UniProt P35348+P25100+P35368); assay: Displacement of [3H]prazosin from Alpha-1 adrenergic receptor; type: protein assay
T2 sequence (P35348 whole entry): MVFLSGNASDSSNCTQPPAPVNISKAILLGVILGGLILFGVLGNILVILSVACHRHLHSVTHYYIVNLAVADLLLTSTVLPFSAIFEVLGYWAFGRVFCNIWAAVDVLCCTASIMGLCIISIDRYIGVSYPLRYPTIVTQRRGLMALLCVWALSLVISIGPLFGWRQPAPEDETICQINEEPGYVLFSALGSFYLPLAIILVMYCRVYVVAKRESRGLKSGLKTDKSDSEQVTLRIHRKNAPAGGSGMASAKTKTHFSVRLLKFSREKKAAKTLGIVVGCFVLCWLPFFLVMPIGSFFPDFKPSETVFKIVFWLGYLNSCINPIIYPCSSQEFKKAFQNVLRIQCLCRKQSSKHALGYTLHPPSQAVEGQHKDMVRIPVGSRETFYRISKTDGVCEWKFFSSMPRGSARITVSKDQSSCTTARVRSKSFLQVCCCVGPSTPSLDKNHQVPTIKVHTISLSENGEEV
T2 sequence (P25100 whole entry): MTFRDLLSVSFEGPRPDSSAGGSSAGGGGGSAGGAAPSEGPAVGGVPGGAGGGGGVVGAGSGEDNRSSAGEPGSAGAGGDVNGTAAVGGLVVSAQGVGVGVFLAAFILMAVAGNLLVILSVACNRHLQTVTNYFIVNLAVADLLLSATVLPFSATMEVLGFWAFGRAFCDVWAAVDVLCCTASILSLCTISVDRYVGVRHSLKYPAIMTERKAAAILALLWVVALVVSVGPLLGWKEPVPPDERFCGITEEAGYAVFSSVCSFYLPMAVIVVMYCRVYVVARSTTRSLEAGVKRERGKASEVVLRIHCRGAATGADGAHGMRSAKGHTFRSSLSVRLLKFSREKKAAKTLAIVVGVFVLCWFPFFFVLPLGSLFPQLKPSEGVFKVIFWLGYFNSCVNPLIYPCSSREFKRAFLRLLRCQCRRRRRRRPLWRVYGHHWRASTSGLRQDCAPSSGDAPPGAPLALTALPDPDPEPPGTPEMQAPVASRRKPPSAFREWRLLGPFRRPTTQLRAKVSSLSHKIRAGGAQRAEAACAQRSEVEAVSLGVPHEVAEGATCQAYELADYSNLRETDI
T2 sequence (P35368 whole entry): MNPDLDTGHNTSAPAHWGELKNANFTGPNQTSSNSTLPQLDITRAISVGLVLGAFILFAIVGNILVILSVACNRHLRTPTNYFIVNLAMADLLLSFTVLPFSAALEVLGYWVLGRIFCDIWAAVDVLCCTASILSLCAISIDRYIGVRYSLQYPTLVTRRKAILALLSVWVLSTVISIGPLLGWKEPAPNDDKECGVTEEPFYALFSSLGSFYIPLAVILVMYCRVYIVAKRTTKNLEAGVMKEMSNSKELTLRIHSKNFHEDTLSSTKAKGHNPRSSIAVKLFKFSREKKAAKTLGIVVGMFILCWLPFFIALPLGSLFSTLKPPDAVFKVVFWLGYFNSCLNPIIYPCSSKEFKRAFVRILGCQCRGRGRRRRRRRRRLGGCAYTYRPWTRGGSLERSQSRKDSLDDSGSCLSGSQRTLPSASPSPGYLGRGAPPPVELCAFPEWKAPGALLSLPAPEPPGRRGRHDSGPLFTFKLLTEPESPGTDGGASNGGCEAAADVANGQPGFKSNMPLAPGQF

Mus musculus [4] = assay: In vivo activity was measured in mice after ip administration using standard sound-induced seizures assay; type: functional
Mus musculus [5] = assay: In vivo activity was measured i mice after ip administration using standard sound-induced seizures assay; type: functional

Description for physchem: Dissociation constant (pKa)

Compound	pKa (physchem)	Ki [1] [nM]	Ki [2]	Ki [3] [nM]	ED50 (Mus musculus [4]) [mg/kg]	ED50 (Mus musculus [5]) [mg/kg]
CNc1ccnc(N2CCc3ccccc3C2)c1	8.8	1200	8 nM and 19 nM			
Cc1ccnc(N2CCc3ccccc3C2)c1	6.6		380 nM			
c1ccc(N2CCc3ccccc3C2)nc1	6.4		750 nM			
Cc1cc(N)nc(N2CCc3ccccc3C2)c1	6.5		110 nM			
Brc1ccc(N2CCc3ccccc3C2)nc1	3		7500 nM			
CC(=O)Nc1ccnc(N2CCc3ccccc3C2)c1	6.5		380 nM			
Nc1cccc(N2CCc3ccccc3C2)n1	6		190 nM			
Cc1ccc(N2CCc3ccccc3C2)nc1	6.5					
Nc1cc(N2CCc3ccccc3C2)nc2c1CCC2	9.4	510	9 nM	730		
Brc1cccc(N2CCc3ccccc3C2)n1	2		15000 nM			
CCOC(=O)C(=O)Nc1cc(C)nc(N2CCc3ccccc3C2)c1	6.5		260 nM			
c1ccc(CNc2ccnc(N3CCc4ccccc4C3)c2)cc1	8.6		150 nM			
Nc1cccnc1N1CCc2ccccc2C1	5		380 nM			
Nc1ccc(N2CCc3ccccc3C2)nc1	5.8		1100 nM			
C[C@@H]([C@@H](O)c1ccc(O)cc1)N1CCC(O)(c2ccccc2)CC1 [TRAXOPRODIL]					13	

Continued, in another order:

pKa (physchem)	Ki [1] [nM]	Ki [2]	Ki [3] [nM]	Compound	ED50 (Mus musculus [4]) [mg/kg]	ED50 (Mus musculus [5]) [mg/kg]
9	2600	5 nM	730	Cc1cc(N)cc(N2CCc3ccccc3C2)n1		
9	2500	3 nM	670	CCc1cc(N)cc(N2CCc3ccccc3C2)n1		
8.5	1900	3 nM	1200	Nc1ccnc(N2CCc3ccccc3C2)c1	7	
8.8	150	8 nM	490	CN(C)c1ccnc(N2CCc3ccccc3C2)c1		
9	6500	8 nM	3200	Cc1cnc(N2CCc3ccccc3C2)cc1NCCO		
8.7	870	4 nM	1000	Cc1cnc(N2CCc3ccccc3C2)cc1N		
9.2	3800	4 nM	3300	Cc1cc(NCCO)cc(N2CCc3ccccc3C2)n1		
8.9	6100	2 nM	2300	OCCNc1ccnc(N2CCc3ccccc3C2)c1	13	
8.1	1100	4 nM	1700	Nc1cc(CO)nc(N2CCc3ccccc3C2)c1		
		3.5 nM		OCCNc1cc(N2CCc3ccccc3C2)nc2ccccc12		< 12
		6 nM		C[C@@H](CN1CCC(Cc2ccccc2)CC1)[C@@H](O)c1ccc(O)cc1 (single isomer, unassigned)	13	
